Source: patent US9422261B2, “Heterocyclic resorcinol derivatives, preparation of same and cosmetic uses thereof” (PIERRE FABRE DERMO-COSMETIQUE, priority 2011, dated 2016)

What was measured:
[1] = Antioxidant ability using chemiluminescence (Photochem, Analytik Jena); details: for μg of sample for 1 μg of Trolox: trapping of superoxide anions, chemiluminescence
Text: This test is used to determine the antioxidant ability of the molecules. It is a method that generates free radicals by a photochemical signal. The intensity of the oxidation is 1000 times greater than that obtained under normal conditions.
Detection is by chemiluminescence. It enables the evaluation of water-soluble and lipid-soluble antioxidant molecules or extracts.
The results are expressed as equivalents of vitamin C or Trolox (6-hydroxy-2,5,7,8-tetramethylchroman-2-carboxylic acid), respectively. The sensitivity is on the order of the nanomole.
The antioxidant activity studied in this test represents the ability to specifically trap superoxide anions by chemiluminescence.
The quantified results are expressed in Trolox equivalents (standard), or “μg of product for 1 μg of Trolox.” This means that a quantity x of sample is needed to obtain activity equivalent to the activity detected for 1 μg of the standard. This represents antioxidant ability relative to a reference, which frees us from concern about the concentration tested.
The superoxide radical (O2°^−) is generated by a photochemical reaction: L+hv(UV)+O2→L*O2→L°^++O2°^− L*: luminol in the excited state L°^+: luminol radical
Some of the superoxide anions are quenched by the antioxidants. The remaining free radicals are quantified by chemiluminescence. L°^++O2°^−→N2+AP*^2−→AP^2−+hv (luminescence) AP*^2−: aminophthalate in the excited state

[2] = Solubility in aqueous phase; assay type: physicochemical; details: aqueous phase / aqueous acidic solution
[3] = biological target: tyrosinase monophenol monooxygenase (MPMO) (Agaricus bisporus, UniProt C7FF04); assay: biochemical
tyrosinase monophenol monooxygenase (MPMO), sequence (C7FF04 1-392 limits assumed): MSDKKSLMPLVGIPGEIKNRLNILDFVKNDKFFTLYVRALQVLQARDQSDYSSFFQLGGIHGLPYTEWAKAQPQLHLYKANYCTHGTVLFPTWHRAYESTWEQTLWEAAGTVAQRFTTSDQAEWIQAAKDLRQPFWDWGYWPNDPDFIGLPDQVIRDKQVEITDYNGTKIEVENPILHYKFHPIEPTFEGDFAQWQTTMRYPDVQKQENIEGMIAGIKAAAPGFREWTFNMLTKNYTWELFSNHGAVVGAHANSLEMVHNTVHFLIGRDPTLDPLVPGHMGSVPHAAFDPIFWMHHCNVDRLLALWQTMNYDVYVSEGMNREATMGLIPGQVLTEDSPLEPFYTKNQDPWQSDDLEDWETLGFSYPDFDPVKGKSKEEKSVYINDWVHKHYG
Description: (§1) The substrate, L-tyrosine, is transformed by the monophenol monooxygenase functional group into L-DOPA, itself transformed by the tyrosinase's polyphenol oxidase functional group into dopaquinone. The latter will auto-oxidize into dopachrome, which is measured by spectrophotometry at 490 nm.
(§2) More precisely, it is global tyrosinase activity (MPMOg) that is measured since ultimately it is dopachrome that is assayed. Thus, the products tested in terms of MPMOg (measurement of activity on PPO and MPMO) can accumulate the inhibition of the 2 functional groups; • inhibiting only the MPMO functional group in the strict sense (transformation of tyrosine into DOPA) in addition to the PPO test, • inhibiting only PPO.

B16-F10 cells = assay: Assay of melanin in B16-F10 cells stimulated with α-MSH; assay type: cell-based, murine; details: 72 hours, 0.1 μM α-MSH; for IC50: Mus musculus, B16-F10, read-out: Melanin assay, in strains B16F10, IC50; for Melanin assay, in strains B16F10 (%): negative value indicates inhibition
Description: This test measures melanin synthesis using a colorimetric assay on a murine melanoma cell line: B16-F10. […] B16-F10 cells are seeded in 96-well plates in DMEM medium supplemented with fetal calf serum (FCS) and then incubated for 24 hours at 37° C., 5% CO2. […] Each concentration of active agent is tested at least in triplicate. […] The total proteins are assayed in the lysate and the results are expressed in mg melanin/mg proteins: The percentage of activity is calculated as follows: A negative value indicates inhibition, whereas a positive value indicates induction of melanin synthesis. Biological Material: • B16-F10 cell line between […] (murine melanocytes) (ATCC, CRL-6475)

[4] = biological target: tyrosinase polyphenol oxidase (PPO) (Agaricus bisporus, UniProt C7FF04); assay: Tyrosinase inhibition test, polyphenol oxidase (PPO) function, reference molecules; assay type: biochemical, mushroom; details: at 25 μM
tyrosinase polyphenol oxidase (PPO), sequence (C7FF04 1-392 limits assumed): as above
Description: as §1, §2

Structure (SMILES): O=C(O)CCCC[C@@H]1CCSS1 (racemic) [Lipoic acid, reference compound]
- μg of sample for 1 μg of Trolox (scale used to interpret the results) ([1]; reference products of the interpretation scale): NEGATIVE

Structure (SMILES): CC(c1ccccc1)c1ccc(O)cc1O (stereo not drawn) [4-(1-phenylethyl)benzene-1,3-diol, reference compound]
- Solubility in aqueous phase [2]: insoluble in aqueous phase

Structure (SMILES): OC[C@H]1O[C@@H](Oc2ccc(O)cc2)[C@H](O)[C@@H](O)[C@@H]1O [Arbutin, reference compound]
- inhibition at 88 µM ([3]; read-out: % inhibition (MPMO)): 57%
- IC50 (B16-F10 cells): 158 µM

Structure (SMILES): CC(c1cccs1)c1ccc(O)cc1O (stereo not drawn) [Compound 1, 4-(1-(thiophene-2-yl)ethyl)benzene-1,3-diol]
- Melanin assay, in strains B16F10 (%) (B16-F10 cells; at 20 μM): −50% at 20 μM
- μg of sample for 1 μg of Trolox [1]: 13.7 μg of sample for 1 μg of Trolox

Structure (SMILES): CC(c1ccccn1)c1ccc(O)cc1O (stereo not drawn) [Compound 2, 4-(1-(pyridin-2-yl)ethyl)benzene-1,3-diol]
- Melanin assay, in strains B16F10 (%) (B16-F10 cells; at 20 μM): −26% at 20 μM
- μg of sample for 1 μg of Trolox [1]: 10.4 μg of sample for 1 μg of Trolox

Structure (SMILES): CC(c1cccnc1)c1ccc(O)cc1O (stereo not drawn) [Compound 3, 4-(1-(pyridin-3-yl)ethyl)benzene-1,3-diol]
- Melanin assay, in strains B16F10 (%) (B16-F10 cells; at 20 μM): −52% at 20 μM
- μg of sample for 1 μg of Trolox [1]: 8.7 μg of sample for 1 μg of Trolox
- Solubility in aqueous phase [2]: dissolve the active ingredient in aqueous acidic solution

Structure (SMILES): CC(c1ccsc1)c1ccc(O)cc1O (stereo not drawn) [Compound 4, 4-(1-(thiophene-3-yl)ethyl)benzene-1,3-diol]
- Melanin assay, in strains B16F10 (%) (B16-F10 cells; at 20 μM): −52% at 20 μM
- μg of sample for 1 μg of Trolox [1]: 15.4 μg of sample for 1 μg of Trolox

Structure (SMILES): CC(c1nccs1)c1ccc(O)cc1O (stereo not drawn) [Compound 5, 4-(1-(thiazol-2-yl)ethyl)benzene-1,3-diol]
- Melanin assay, in strains B16F10 (%) (B16-F10 cells; at 20 μM): −33% at 20 μM
- μg of sample for 1 μg of Trolox [1]: 11.7 μg of sample for 1 μg of Trolox

Structure (SMILES): CC(C)CC(c1cccs1)c1ccc(O)cc1O (stereo not drawn) [Compound 28, 4-(3-methyl-1-(thiophene-2-yl)butyl)benzene-1,3-diol]
- Melanin assay, in strains B16F10 (%) (B16-F10 cells; at 10 μM): −52% at 10 μM
- melting point: 89.9 °C

Structure (SMILES): CCCC(c1cccs1)c1ccc(O)cc1O (stereo not drawn) [Compound 31, 4-(1-(thiophene-2-yl)butyl)benzene-1,3-diol]
- Melanin assay, in strains B16F10 (%) (B16-F10 cells; at 10 μM): −50% at 10 μM

Structure (SMILES): O=c1cc(CO)occ1O [Kojic acid, reference compound]
- IC50 (B16-F10 cells): 2400 µM

Structure (SMILES): N[C@@H](CCC(=O)N[C@@H](CS)C(=O)NCC(=O)O)C(=O)O [Reduced glutathione]
- % inhibition (PPO) [4]: 55%
- IC50 ([3]; read-out: IC50 (MPMO), reference molecules for the test, MPMO): 1 to 2 µM
